How the values were obtained:
D(1B) dopamine receptor = D(1B) dopamine receptor (Homo sapiens, UniProt P21918)
[1] = target: T1, Alpha-2A adrenergic receptor (Homo sapiens, UniProt P08913)
T1 sequence (P08913 whole entry): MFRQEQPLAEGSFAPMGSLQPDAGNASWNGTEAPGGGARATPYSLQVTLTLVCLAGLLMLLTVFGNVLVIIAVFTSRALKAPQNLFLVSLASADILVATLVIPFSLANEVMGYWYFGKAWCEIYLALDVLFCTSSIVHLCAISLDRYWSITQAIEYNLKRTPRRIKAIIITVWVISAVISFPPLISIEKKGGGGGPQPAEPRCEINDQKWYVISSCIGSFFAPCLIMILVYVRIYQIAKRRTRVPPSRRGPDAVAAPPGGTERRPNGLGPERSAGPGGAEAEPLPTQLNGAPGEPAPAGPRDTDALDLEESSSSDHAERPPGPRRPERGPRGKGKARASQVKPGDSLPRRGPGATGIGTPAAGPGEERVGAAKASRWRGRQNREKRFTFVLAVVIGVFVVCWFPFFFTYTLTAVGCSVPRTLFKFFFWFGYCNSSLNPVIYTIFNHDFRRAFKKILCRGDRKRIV

Thromboxane A2 receptor [2] = target: T2, Thromboxane A2 receptor (Homo sapiens, UniProt P21731); type: functional
T2 sequence (P21731 whole entry): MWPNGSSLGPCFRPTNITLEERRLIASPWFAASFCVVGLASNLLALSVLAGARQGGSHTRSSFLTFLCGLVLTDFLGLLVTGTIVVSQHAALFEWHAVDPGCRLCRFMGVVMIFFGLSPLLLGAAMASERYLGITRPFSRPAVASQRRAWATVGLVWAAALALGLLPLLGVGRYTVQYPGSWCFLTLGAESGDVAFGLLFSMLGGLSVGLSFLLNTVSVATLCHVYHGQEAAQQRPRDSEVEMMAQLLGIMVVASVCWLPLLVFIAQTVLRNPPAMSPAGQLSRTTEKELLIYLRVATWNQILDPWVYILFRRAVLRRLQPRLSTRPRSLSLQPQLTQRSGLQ

Thromboxane A2 receptor [3] = target: T2, Thromboxane A2 receptor; type: functional, cell-based
[4] = target: T3, Oxysterols receptor LXR-beta (Homo sapiens, UniProt P55055); type: functional
T3 sequence (P55055 whole entry): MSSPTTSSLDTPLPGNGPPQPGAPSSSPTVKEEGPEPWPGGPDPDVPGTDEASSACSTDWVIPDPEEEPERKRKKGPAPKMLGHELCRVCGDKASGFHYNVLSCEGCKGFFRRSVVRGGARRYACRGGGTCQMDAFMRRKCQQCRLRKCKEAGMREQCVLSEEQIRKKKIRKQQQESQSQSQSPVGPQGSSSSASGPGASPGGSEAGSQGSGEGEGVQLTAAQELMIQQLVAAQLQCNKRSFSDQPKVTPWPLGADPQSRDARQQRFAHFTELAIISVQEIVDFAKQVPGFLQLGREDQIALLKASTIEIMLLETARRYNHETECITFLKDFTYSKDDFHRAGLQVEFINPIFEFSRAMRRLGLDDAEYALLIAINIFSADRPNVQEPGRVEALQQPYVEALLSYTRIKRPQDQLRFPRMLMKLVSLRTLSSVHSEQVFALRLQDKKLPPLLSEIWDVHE

[5] = target: T4, Retinoic acid receptor alpha (Homo sapiens, UniProt P10276); type: functional, cell-based
T4 sequence (P10276 whole entry): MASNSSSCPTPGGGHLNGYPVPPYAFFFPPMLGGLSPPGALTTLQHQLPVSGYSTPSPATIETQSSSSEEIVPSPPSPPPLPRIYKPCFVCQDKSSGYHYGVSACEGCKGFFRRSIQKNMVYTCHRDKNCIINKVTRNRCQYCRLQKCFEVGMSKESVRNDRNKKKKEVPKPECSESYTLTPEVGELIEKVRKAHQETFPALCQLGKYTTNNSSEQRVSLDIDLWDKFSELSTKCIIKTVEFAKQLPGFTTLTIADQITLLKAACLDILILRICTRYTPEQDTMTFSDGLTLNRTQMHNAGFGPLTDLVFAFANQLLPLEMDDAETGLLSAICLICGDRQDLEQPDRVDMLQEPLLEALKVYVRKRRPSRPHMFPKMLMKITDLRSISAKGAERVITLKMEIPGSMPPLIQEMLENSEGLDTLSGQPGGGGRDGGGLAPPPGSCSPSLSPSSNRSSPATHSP

[6] = target: T5, Retinoic acid receptor beta (Homo sapiens, UniProt P10826); type: functional, cell-based
T5 sequence (P10826 whole entry): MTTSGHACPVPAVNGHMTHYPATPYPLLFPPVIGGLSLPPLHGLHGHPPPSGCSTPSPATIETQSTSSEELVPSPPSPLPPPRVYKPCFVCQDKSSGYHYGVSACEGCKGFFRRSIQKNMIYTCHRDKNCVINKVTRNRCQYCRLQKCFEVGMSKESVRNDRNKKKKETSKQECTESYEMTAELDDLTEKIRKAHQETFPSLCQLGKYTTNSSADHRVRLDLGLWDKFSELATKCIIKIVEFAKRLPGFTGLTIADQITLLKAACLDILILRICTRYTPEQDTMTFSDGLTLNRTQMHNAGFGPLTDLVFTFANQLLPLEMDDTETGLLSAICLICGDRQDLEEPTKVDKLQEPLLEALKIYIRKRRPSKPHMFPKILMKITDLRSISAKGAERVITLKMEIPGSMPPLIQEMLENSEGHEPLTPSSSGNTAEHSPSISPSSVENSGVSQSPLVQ

[7] = target: T5, Retinoic acid receptor beta; type: functional, cell-based; remark: listed apart in the source
[8] = target: T6, Retinoic acid receptor gamma (Homo sapiens, UniProt P13631); type: functional, cell-based
T6 sequence (P13631 whole entry): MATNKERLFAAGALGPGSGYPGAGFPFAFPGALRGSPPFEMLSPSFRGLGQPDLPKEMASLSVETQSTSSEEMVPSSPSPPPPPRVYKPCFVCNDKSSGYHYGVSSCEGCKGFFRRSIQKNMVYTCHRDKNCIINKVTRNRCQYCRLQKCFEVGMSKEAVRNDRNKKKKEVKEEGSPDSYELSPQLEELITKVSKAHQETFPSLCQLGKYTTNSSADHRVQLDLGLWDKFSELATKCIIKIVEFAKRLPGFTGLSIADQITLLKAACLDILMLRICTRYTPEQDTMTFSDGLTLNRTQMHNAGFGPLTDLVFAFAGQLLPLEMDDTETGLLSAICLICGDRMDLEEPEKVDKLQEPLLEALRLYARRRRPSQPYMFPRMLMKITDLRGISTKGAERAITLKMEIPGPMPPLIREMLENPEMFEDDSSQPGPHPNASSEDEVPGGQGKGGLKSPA

[9] = target: T6, Retinoic acid receptor gamma; type: functional, cell-based; remark: listed apart in the source
Further: assay procedure not described here.

Sequence of D(1B) dopamine receptor (P21918 whole entry): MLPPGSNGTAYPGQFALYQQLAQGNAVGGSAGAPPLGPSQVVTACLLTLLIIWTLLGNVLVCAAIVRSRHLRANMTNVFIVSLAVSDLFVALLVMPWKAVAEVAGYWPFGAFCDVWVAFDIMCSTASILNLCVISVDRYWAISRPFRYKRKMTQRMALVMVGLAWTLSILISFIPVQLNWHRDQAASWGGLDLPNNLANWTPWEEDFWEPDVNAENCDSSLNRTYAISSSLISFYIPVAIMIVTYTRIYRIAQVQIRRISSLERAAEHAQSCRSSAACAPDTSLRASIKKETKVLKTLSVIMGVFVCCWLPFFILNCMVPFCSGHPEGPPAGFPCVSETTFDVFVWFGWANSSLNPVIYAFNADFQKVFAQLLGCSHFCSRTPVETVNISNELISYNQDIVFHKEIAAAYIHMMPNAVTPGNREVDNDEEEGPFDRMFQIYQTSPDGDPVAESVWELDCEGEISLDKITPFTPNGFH

Cc1onc(-c2ccccc2)c1-c1ccc(S(N)(=O)=O)cc1 [VALDECOXIB]
AC50 (D(1B) dopamine receptor): > 10 µM

COc1cc2nc(N3CCN(C(=O)C4CCCO4)CC3)nc(N)c2cc1OC (stereo not given) [TERAZOSIN]
AC50 [1]: 29 µM

C=CC[C@@H]1/C=C(\C)C[C@H](C)C[C@H](OC)[C@H]2O[C@@](O)(C(=O)C(=O)N3CCCC[C@H]3C(=O)O[C@H](/C(C)=C/[C@@H]3CC[C@@H](O)[C@H](OC)C3)[C@H](C)[C@@H](O)CC1=O)[C@H](C)C[C@@H]2OC [TACROLIMUS ANHYDROUS]
AC50 (Thromboxane A2 receptor [2]): > 30 µM
AC50 (Thromboxane A2 receptor [3]): 10 µM

N[C@@H](CC(=O)N1CCn2c(nnc2C(F)(F)F)C1)Cc1cc(F)c(F)cc1F [SITAGLIPTIN]
AC50 (D(1B) dopamine receptor): > 10 µM

CC(C(=O)O)c1ccc2c(c1)[nH]c1ccc(Cl)cc12 (stereo not given) [CARPROFEN]
AC50 [4]: > 30 µM
AC50 [5]: > 30 µM
AC50 [6]: > 30 µM
AC50 [7]: > 30 µM
AC50 [8]: > 30 µM
AC50 [9]: > 30 µM

COc1cc2nccc(Oc3ccc(NC(=O)C4(C(=O)Nc5ccc(F)cc5)CC4)cc3)c2cc1OC [CABOZANTINIB]
AC50 (Thromboxane A2 receptor [2]): > 30 µM
AC50 (Thromboxane A2 receptor [3]): 5.52 µM
AC50 [1]: > 30 µM

CCN(CC)CCNC(=O)c1c(C)[nH]c(/C=C2\C(=O)Nc3ccc(F)cc32)c1C [SUNITINIB]
AC50 [4]: > 30 µM
AC50 [5]: > 10 µM
AC50 [6]: > 3 µM
AC50 [7]: > 30 µM
AC50 [8]: > 30 µM
AC50 [9]: > 10 µM

— ChEMBL document CHEMBL5291721, “A preclinical secondary pharmacology resource illuminates target-adverse drug reaction associations of marketed drugs” (Nat Commun, 2023)
